Literature values in paper PMC9847093 (Protein Science : A Publication of the Protein Society, 2023).

Conditions: for pKa of monomers used to calculate theoretical number of charges per AOS: M and G monomers; for pKa: ref Draget et al., [1994]

Row | pKa of monomers used to calculate theoretical number of charges per AOS | pKa | SMILES
1 | 3.65 | 3.7 | O=C(O)[C@@H]1O[C@@H](O)[C@@H](O)[C@@H](O)[C@@H]1O [G, α‐L‐guluronate]
2 | 3.38 | 3.4 | O=C(O)[C@H]1O[C@@H](O)[C@@H](O)[C@@H](O)[C@@H]1O [M, β‐D‐mannuronate]
